Experimental data: the NIST ThermoML archive (doi:10.1021/acs.jced.7b00773)

Conditions: Liquid; for viscosity: Concentric cylinders viscometry

CCn1cc[n+](C)c1.N#C[B-](C#N)(C#N)C#N [1-ethyl-3-methylimidazolium tetracyanoborate]
100 kPa
Conditions | viscosity [mPa·s]
293.15 K | 22.11
303.15 K | 15.38
313.15 K | 11.23
323.15 K | 8.55
333.15 K | 6.751
343.15 K | 5.473
353.15 K | 4.537
363.15 K | 3.833
373.15 K | 3.289

Conditions | mass density [kg/m3]
293.15 K, 100 kPa, Vibrating tube method | 1040.5
303.15 K, 100 kPa, Vibrating tube method | 1032.7
311.8 K, 10000 kPa, Bellows volumetry | 1031.2
311.8 K, 20000 kPa, Bellows volumetry | 1036.6
311.8 K, 30000 kPa, Bellows volumetry | 1041.7
311.8 K, 40000 kPa, Bellows volumetry | 1046.6
311.8 K, 50000 kPa, Bellows volumetry | 1051.3
311.8 K, 60000 kPa, Bellows volumetry | 1055.9
311.8 K, 70000 kPa, Bellows volumetry | 1060.3
311.8 K, 80000 kPa, Bellows volumetry | 1064.6
311.8 K, 90000 kPa, Bellows volumetry | 1068.7
311.8 K, 100000 kPa, Bellows volumetry | 1072.8
311.8 K, 110000 kPa, Bellows volumetry | 1076.8
311.8 K, 120000 kPa, Bellows volumetry | 1080.6
311.8 K, 130000 kPa, Bellows volumetry | 1084.3
311.8 K, 140000 kPa, Bellows volumetry | 1088
311.8 K, 150000 kPa, Bellows volumetry | 1091.6
311.8 K, 160000 kPa, Bellows volumetry | 1095.1
311.8 K, 170000 kPa, Bellows volumetry | 1098.5
311.8 K, 180000 kPa, Bellows volumetry | 1101.9
311.8 K, 190000 kPa, Bellows volumetry | 1105.1
311.8 K, 200000 kPa, Bellows volumetry | 1108.5
313.15 K, 100 kPa, Vibrating tube method | 1024.9
323.15 K, 100 kPa, Vibrating tube method | 1017.2
331.7 K, 10000 kPa, Bellows volumetry | 1016.3
331.7 K, 20000 kPa, Bellows volumetry | 1021.9
331.7 K, 30000 kPa, Bellows volumetry | 1027.4
331.7 K, 40000 kPa, Bellows volumetry | 1032.6
331.7 K, 50000 kPa, Bellows volumetry | 1037.5
331.7 K, 60000 kPa, Bellows volumetry | 1042.3
331.7 K, 70000 kPa, Bellows volumetry | 1046.9
331.7 K, 80000 kPa, Bellows volumetry | 1051.4
331.7 K, 90000 kPa, Bellows volumetry | 1055.7
331.7 K, 100000 kPa, Bellows volumetry | 1059.9
331.7 K, 110000 kPa, Bellows volumetry | 1064
331.7 K, 120000 kPa, Bellows volumetry | 1068
331.7 K, 130000 kPa, Bellows volumetry | 1071.9
331.7 K, 140000 kPa, Bellows volumetry | 1075.6
331.7 K, 150000 kPa, Bellows volumetry | 1079.2
331.7 K, 160000 kPa, Bellows volumetry | 1082.9
331.7 K, 170000 kPa, Bellows volumetry | 1086.4
331.7 K, 180000 kPa, Bellows volumetry | 1089.9
331.7 K, 190000 kPa, Bellows volumetry | 1093.3
331.7 K, 200000 kPa, Bellows volumetry | 1096.7
333.15 K, 100 kPa, Vibrating tube method | 1009.6
343.15 K, 100 kPa, Vibrating tube method | 1002
351.8 K, 10000 kPa, Bellows volumetry | 1001.6
351.8 K, 20000 kPa, Bellows volumetry | 1007.5
351.8 K, 30000 kPa, Bellows volumetry | 1013.3
351.8 K, 40000 kPa, Bellows volumetry | 1018.7
351.8 K, 50000 kPa, Bellows volumetry | 1024
351.8 K, 60000 kPa, Bellows volumetry | 1029
351.8 K, 70000 kPa, Bellows volumetry | 1033.8
351.8 K, 80000 kPa, Bellows volumetry | 1038.5
351.8 K, 90000 kPa, Bellows volumetry | 1043
351.8 K, 100000 kPa, Bellows volumetry | 1047.3
351.8 K, 110000 kPa, Bellows volumetry | 1051.5
351.8 K, 120000 kPa, Bellows volumetry | 1055.7
351.8 K, 130000 kPa, Bellows volumetry | 1059.7
351.8 K, 140000 kPa, Bellows volumetry | 1063.6
351.8 K, 150000 kPa, Bellows volumetry | 1067.4
351.8 K, 160000 kPa, Bellows volumetry | 1071.2
351.8 K, 170000 kPa, Bellows volumetry | 1074.8
351.8 K, 180000 kPa, Bellows volumetry | 1078.4
351.8 K, 190000 kPa, Bellows volumetry | 1081.9
351.8 K, 200000 kPa, Bellows volumetry | 1085.3
353.15 K, 100 kPa, Vibrating tube method | 994.8
363.15 K, 100 kPa, Vibrating tube method | 987.5
372 K, 10000 kPa, Bellows volumetry | 987.2
372 K, 20000 kPa, Bellows volumetry | 993.6
372 K, 30000 kPa, Bellows volumetry | 999.6
372 K, 40000 kPa, Bellows volumetry | 1005.4
372 K, 50000 kPa, Bellows volumetry | 1010.8
372 K, 60000 kPa, Bellows volumetry | 1016
372 K, 70000 kPa, Bellows volumetry | 1021
372 K, 80000 kPa, Bellows volumetry | 1025.9
372 K, 90000 kPa, Bellows volumetry | 1030.5
372 K, 100000 kPa, Bellows volumetry | 1035.1
372 K, 110000 kPa, Bellows volumetry | 1039.5
372 K, 120000 kPa, Bellows volumetry | 1043.8
372 K, 130000 kPa, Bellows volumetry | 1048
372 K, 140000 kPa, Bellows volumetry | 1052.1
372 K, 150000 kPa, Bellows volumetry | 1055.9
372 K, 160000 kPa, Bellows volumetry | 1059.8
372 K, 170000 kPa, Bellows volumetry | 1063.5
372 K, 180000 kPa, Bellows volumetry | 1067.2
372 K, 190000 kPa, Bellows volumetry | 1070.9
372 K, 200000 kPa, Bellows volumetry | 1074.4
373.15 K, 100 kPa, Vibrating tube method | 980.3
392.1 K, 10000 kPa, Bellows volumetry | 973
392.1 K, 20000 kPa, Bellows volumetry | 979.8
392.1 K, 30000 kPa, Bellows volumetry | 986.2
392.1 K, 40000 kPa, Bellows volumetry | 992.2
392.1 K, 50000 kPa, Bellows volumetry | 998
392.1 K, 60000 kPa, Bellows volumetry | 1003.4
392.1 K, 70000 kPa, Bellows volumetry | 1008.6
392.1 K, 80000 kPa, Bellows volumetry | 1013.8
392.1 K, 90000 kPa, Bellows volumetry | 1018.6
392.1 K, 100000 kPa, Bellows volumetry | 1023.3
392.1 K, 110000 kPa, Bellows volumetry | 1028
392.1 K, 120000 kPa, Bellows volumetry | 1032.4
392.1 K, 130000 kPa, Bellows volumetry | 1036.6
392.1 K, 140000 kPa, Bellows volumetry | 1040.8
392.1 K, 150000 kPa, Bellows volumetry | 1044.9
392.1 K, 160000 kPa, Bellows volumetry | 1048.8
392.1 K, 170000 kPa, Bellows volumetry | 1052.8
392.1 K, 180000 kPa, Bellows volumetry | 1056.5
392.1 K, 190000 kPa, Bellows volumetry | 1060.2
392.1 K, 200000 kPa, Bellows volumetry | 1063.9
412.2 K, 10000 kPa, Bellows volumetry | 959.2
412.2 K, 20000 kPa, Bellows volumetry | 966.3
412.2 K, 30000 kPa, Bellows volumetry | 973
412.2 K, 40000 kPa, Bellows volumetry | 979.4
412.2 K, 50000 kPa, Bellows volumetry | 985.4
412.2 K, 60000 kPa, Bellows volumetry | 991.1
412.2 K, 70000 kPa, Bellows volumetry | 996.6
412.2 K, 80000 kPa, Bellows volumetry | 1001.9
412.2 K, 90000 kPa, Bellows volumetry | 1007
412.2 K, 100000 kPa, Bellows volumetry | 1011.9
412.2 K, 110000 kPa, Bellows volumetry | 1016.6
412.2 K, 120000 kPa, Bellows volumetry | 1021.2
412.2 K, 130000 kPa, Bellows volumetry | 1025.7
412.2 K, 140000 kPa, Bellows volumetry | 1030
412.2 K, 150000 kPa, Bellows volumetry | 1034.1
412.2 K, 160000 kPa, Bellows volumetry | 1038.2
412.2 K, 170000 kPa, Bellows volumetry | 1042.2
412.2 K, 180000 kPa, Bellows volumetry | 1046.1
412.2 K, 190000 kPa, Bellows volumetry | 1049.9
412.2 K, 200000 kPa, Bellows volumetry | 1053.6
